Experimental data from patent publication US20180296537A1, “METHODS AND COMPOSITIONS FOR DIAGNOSING, TREATING, AND MONITORING TREATMENT OF SHANK3 DEFICIENCY ASSOCIATED DISORDERS” (Novartis AG, priority 2015, published 2018).
Entries after “also recorded” stand apart in the source; their conditions may differ.

Key:
[1] = system: Akt; assay: In vivo Akt phosphorylation in Shank3^ΔC/ΔC mice; set-up: species or system mouse; conditions: 30 mg/kg TG003 intraperitoneal
Text: To determine whether the above findings extend to autism spectrum disorder (ASD)-like behaviors, a Shank3-deficient mouse model was generated by ablation of Shank3 exon 21 (FIGS. 8A and 8B) as previously described (Kouser et al., Journal of Neuroscience 33, 18448-18468, 2013; Duffney et al., Cell reports 11, 1400-1413, 2015). To generate Shank3 exon 21-deleted mice, the exon 21 genomic region of Shank3 (2464 bp in size) was replaced by homologous recombination with a loxP-TK_Neo-loxP cassette. The Neo cassette was flanked by a 3 kb 5′ homology arm and a 1.6 kb 3′ homology arm. Linearized targeting vector DNA was electroporated into C57BL6/J ES cells, and G418 resistant ES clones were first screened by nested PCR, and then subjected to Southern blot analysis. For Southern analysis, genomic DNA was digested with restriction enzyme(s), and hybridized with probes positioned outside the 5′ and 3′ homologous regions. Targeted ES clones were used for blastocyst injection, and chimeric males were mated with transgenic Cre-expressing C57B1/6 mice females to remove the neomycin resistance cassette. Animals without the neo cassette were used as F1 mice to establish the Shank3 exon 21-deleted (Shank3^ΔC/ΔC) colony.
The major Shank3 isoforms were absent in the homozygous mice (Shank3^ΔC/ΔC), while faster-migrating, truncated fragments were detected (FIG. 8C).

[2] = system: Shank3^ΔC/ΔC mice; assay: Three-chamber social interaction task; assay type: in vivo, mouse
Method: The three-chamber social interaction task was performed in a three-chambered arena with transparent walls and retractable doorways to allow mice access to flanking chambers (FIG. 9F). During testing, the arena was placed in a lighted, sound-proof box with no side-biasing features. A video camera was mounted above for recording. The test comprised three phases with different stimuli placed in the side chambers successively between phases. Each stimulus (social or inanimate) was placed within a small wire cage for immobilization while test mice were allowed to freely investigate the stimuli. In Phase 1, identical inanimate objects (inverted ceramic cups with blue stripe) were placed in both side chambers. An intruder mouse (same strain) was introduced in one side chamber as the social stimulus in Phase 2. In Phase 3, a second intruder mouse was placed in the other side chamber (novel social stimulus). Each phase consisted of a 7.5 minute exploration period with 5 minutes in the home cage between phases. The test animal was placed in the center chamber to start the task. Animals were habituated to the arena 24 hours before testing during which time they were allowed to freely explore the entire arena, with empty wire cages in side chambers, for 10 minutes. Social interaction time for a given phase was scored by cumulative social/investigative behaviors, in particular sniffing and actively seeking a stimulus. Proximity to a stimulus without investigation was not counted. Preference index was calculated by subtracting interaction time with one stimulus from that of the other stimulus in the same testing phase then dividing this by the sum of interaction times for both stimuli and converting this to a percentage. Positive scores indicate a preference for the first stimulus in the equation. […]

[3] = system: Shank3^ΔC/ΔC mice; assay: Spontaneous self-grooming; assay type: in vivo, mouse; conditions: 10 minute interval; TG003-treated Shank3^ΔC/ΔC mice
Method: To monitor spontaneous self-grooming, mice were placed in a clean cage (identical to the home cage), with minimal bedding to discourage digging, which was then placed in the sound-proof box for video monitoring. Animals were habituated in the new cage for 10 minutes before self-grooming was monitored during another 10 minutes. Cumulative grooming time was reported for this second 10 minute period.

[4] = system: Shank3^ΔC/ΔC mice; assay: Marble burying (avoidance behavior); assay type: in vivo, mouse; conditions: 30 minutes, 20 marbles; TG003 treatment
Method: To assess avoidance behavior by marble burying, 20 black marbles were evenly distributed in rows in a novel home cage on top of 5 cm of fresh bedding and mice were left undisturbed for 30 minutes in the cage. The number of marbles to at least ⅔ depth were then recorded.

[5] = system: IGF-signaling impaired zebrafish model; conditions: cited from earlier work

SMILES	Akt phosphorylation in vivo [1]	total distance travelled ([2]; phase 1 or phase 2, TG003-treated mice)	preference for social interaction (S1 versus O1 interaction times) ([2]; phase 2, 30 mg/kg TG003 i.p. 6-8 hours before testing, 30 mg/kg)	social investigation after delay ([2]; phase 2, 72 hours after TG003 treatment)	time spent in S1 chamber ([2]; phase 2, TG003-treated Shank3^ΔC/ΔC mice)	self-grooming [3]	avoidance behavior, marble burying [4]	habituation learning [5]
CCN1/C(=C/C(C)=O)Sc2ccc(OC)cc21 [TG003, (Z)-1-(3-ethyl-5-methoxy-2,3-dihydrobenzothiazol-2-ylidene)propan-2-one]	increases Akt phosphorylation	no change from wild type in total distance travelled	recovered normal preference for social interaction; also recorded: corrected	maintained 72 hours after treatment	restores the time spent in the Si chamber to wild type levels	significantly decreased self-grooming although not to wild type frequency	refractory to treatment with TG003	–
CCOC(=O)C1=C(N)Oc2ccc(Cl)cc2C1C(C#N)C(=O)OCC (centres unmarked) [SC79]	–	–	–	–	–	–	–	restore habituation learning
